Assay results taken from PubChem BioAssay (NCI).
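Dose response: 5 concentrations. Exposure: 48 h. Format: 96-well plates. Endpoint: linear interpolation; highest concentration if not reached. Abbreviation: GI50, concentration required for 50% inhibition of growth. TGI: concentration producing complete growth inhibition.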

Key:
Assay in all cases: growth of human tumour cells (NCI), 48 h
MOLT-4 leukemia = test system: MOLT-4 leukemia
SW-620 colon = test system: SW-620 colon
CCRF-CEM leukemia = test system: CCRF-CEM leukemia
M14 melanoma = test system: M14 melanoma
HT29 colon = test system: HT29 colon
HCC-2998 colon = test system: HCC-2998 colon
SR leukemia = test system: SR leukemia
SK-OV-3 ovarian = test system: SK-OV-3 ovarian
ACHN renal = test system: ACHN renal
UACC-62 melanoma = test system: UACC-62 melanoma

Structure (SMILES)	GI50 (MOLT-4 leukemia) [µM]	TGI (MOLT-4 leukemia) [µM]	GI50 (SW-620 colon) [µM]	TGI (SW-620 colon) [µM]	GI50 (CCRF-CEM leukemia) [µM]	TGI (CCRF-CEM leukemia) [µM]	GI50 (M14 melanoma) [µM]	TGI (M14 melanoma) [µM]	GI50 (HT29 colon) [µM]	TGI (HT29 colon) [µM]	GI50 (HCC-2998 colon) [µM]	TGI (HCC-2998 colon) [µM]	GI50 (SR leukemia) [µM]	TGI (SR leukemia) [µM]	GI50 (SK-OV-3 ovarian) [µM]	TGI (SK-OV-3 ovarian) [µM]	GI50 (ACHN renal) [µM]	TGI (ACHN renal) [µM]	GI50 (UACC-62 melanoma) [µM]	TGI (UACC-62 melanoma) [µM]
COc1ccc2c(c1)[n+](=O)c(/C=C/C(=O)c1cc(OC)c(OC)c(OC)c1)c(C)n2[O-]	2.55	25.3	4.03	47.6	1.87	8.08	3.55	23.5	4.35	50.9	23.4	68.7	0.644	2.41	23.9	92.8	5.66	23.6	2.9	14.1
Cc1cc(C)c(-c2c(O)c(Br)c(-c3c(C)cc(C)c(Br)c3C)c(O)c2Br)c(C)c1Br	2.39	13	2.94	12	4.06	20.2	1.97	4.71	2.34	10.2	2.67	7.31	2.32	8.29	4.77	23.8	3.14	13	1.54	4.04
COC(=O)C1=C(O)c2cc(OC)c(OC)c(OC)c2C(c2ccc3c(c2)OCO3)[C@@H]1C(=O)OC (some centres not stated)	–	> 100	–	> 100	–	> 100	–	10.7	–	12.7	–	31.7	–	> 100	–	8.76	–	> 100	–	> 100
COc1ccc(CN2c3ccccc3Sc3ccccc32)cc1O	0.42	22.4	0.504	17.7	0.411	22.4	0.383	18.6	0.724	6.4	0.422	10.7	0.407	30.7	0.521	16.4	1.56	21.8	0.682	19.4
NC(=S)c1cccc(C2Nc3ccccc3O2)c1 (configuration not stated)	–	> 100	–	> 100	–	–	–	> 100	–	> 100	–	–	–	> 100	–	> 100	–	> 100	–	96.2
CC(=O)/C(=N\N=C(N)N)c1ccccc1	–	> 100	–	> 100	–	–	–	> 100	–	> 100	–	> 100	–	> 100	–	> 100	–	> 100	–	> 100
CSCc1ncc(-c2ccc(C(F)(F)F)cc2)c(NC2CCCCCC2)n1	> 10	> 10	> 10	> 10	> 10	> 10	> 10	> 10	> 10	> 10	> 10	> 10	> 10	> 10	> 10	> 10	> 10	> 10	> 10	> 10
Cc1cc(C)nc(NC(=O)COc2ccc(Cl)cc2)c1	–	> 100	–	> 100	–	–	–	> 100	–	> 100	–	–	–	> 100	–	> 100	–	> 100	–	> 100
Cn1cnnc1Sc1c([N+](=O)[O-])nc(-c2ccc([N+](=O)[O-])cc2)n1C	–	31.8	–	31.3	–	33.7	–	30.6	–	34.3	–	31.8	–	35.5	–	> 100	–	33.7	–	30.4
O=C(O)CCN1C(=S)CSC1=S	–	> 100	–	> 100	–	> 100	–	> 100	–	> 100	–	–	–	> 100	–	> 100	–	> 100	–	> 100
COc1ccc(N=c2nc3sc4cc(Cl)ccc4n3c(N)c2C#N)cc1	7.74	> 76.5	3.69	29.7	11	> 100	4.45	> 100	1.31	> 100	–	–	8.49	> 84.8	5.9	> 100	8.66	> 100	3.35	> 38.5
CCOC(=O)C(Cc1cc(OC)c(CC(C(=O)OCC)C(=O)OCC)cc1OC)C(=O)OCC	–	> 100	–	> 100	–	> 100	–	> 100	–	> 100	–	> 100	–	> 100	–	> 100	–	> 100	–	> 100
O=c1[nH]c(=S)[nH]c2c1CCCN2	–	> 100	–	> 100	–	> 100	–	> 100	–	> 100	–	–	–	> 100	–	> 100	–	> 100	–	> 100
O=C(O)C12C=CC(C1)c1ccccc12 (configuration not stated)	–	> 100	–	> 100	–	> 100	–	> 100	–	> 100	–	> 100	–	> 100	–	> 100	–	> 100	–	> 100
S=C(Nc1ccc(-c2nc3ccccc3s2)cc1)Nc1ccc(-c2nc3ccccc3s2)cc1	10.2	> 100	23.7	67.3	18.4	70.6	21.6	46.1	20.7	55.9	17.4	31.2	21	49.5	58.8	> 100	17.1	41	15.7	32
O=C1N=C2N=C(c3ccc(Cl)cc3)N(c3ccc(Cl)cc3)N2Sc2ccccc21	–	> 100	–	> 100	–	> 100	–	> 100	–	> 100	–	> 100	–	–	–	> 100	–	> 100	–	> 100
NCCOCCOCC(=O)O	–	> 100	–	> 100	–	–	–	–	–	> 100	–	> 100	–	> 100	–	> 100	–	> 100	–	> 100
CNC(=O)NCCCCC(NC(C)=O)C(=O)NCc1ccccc1 (configuration not stated)	–	> 100	–	> 100	–	> 100	–	> 100	–	> 100	–	> 100	–	–	–	> 100	–	> 100	–	> 100
